Columns and labels:
B. subtilis 168 [1] = assay: fitness (endpoint OD595 vs no drug) (fraction); higher = more growth
Procedure, shortened: (§1)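 Bacterial fitness was scored as optical density at the stationary-phase transition relative to the robust mean of no-drug control wells. Scores are capped at 1. The growth data were OD595 readings every 30 min for 14 h at 37 °C, background-subtracted against the first reading, from 384-well plates inoculated at OD595 0.01 in TSB, LB Lennox or CY.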

S. aureus Newman [2] = assay: as above
Procedure, shortened: as §1

S. pneumoniae D39V [3] = assay: as above
Procedure, shortened: as §1

B. subtilis 168 [4] = assay: Bliss interaction score (quartile over a dose matrix) (fitness difference); higher = more antagonism (negative = synergy)
Procedure, shortened: (§2)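 The Bliss score is observed minus expected fitness, where expected fitness is the product of the single-drug fitness values inferred from the combination data. Fitness is the OD595 at the onset of stationary phase over the plate's robust no-drug mean, capped at 1. Scores are summarised by quartiles over technical, biological and donor/recipient replicates.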

S. aureus DSM 20231 = assay: as above
Procedure, shortened: as §2

S. aureus Newman [5] = assay: as above
Procedure, shortened: as §2

S. pneumoniae D39V [6] = assay: as above
Procedure, shortened: as §2

[7] = first compound 0.625 µg/mL, partner 2 µg/mL
[8] = first compound 0.625 µg/mL, partner 4 µg/mL
[9] = first compound 1.25 µg/mL, partner 2 µg/mL
[10] = first compound 1.25 µg/mL, partner 4 µg/mL
[11] = first compound 1.25 µg/mL, partner 8 µg/mL
[12] = first compound 2.5 µg/mL, partner 2 µg/mL
[13] = first compound 2.5 µg/mL, partner 4 µg/mL
[14] = first compound 2.5 µg/mL, partner 8 µg/mL
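Wherever Bliss interaction score (quartile over a dose matrix) is given: first quartile when negative (synergy) and third quartile when positive (antagonism).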
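Wherever fitness (endpoint OD595 vs no drug) is given: OD595 on entry to stationary phase over no-drug wells; at most 1.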

## Cc1ncc([N+](=O)[O-])n1CCO [Metronidazole] + CN[C@@H]1[C@H](O[C@H]2[C@H](O[C@H]3[C@H](O)[C@@H](O)[C@H](N=C(N)N)[C@@H](O)[C@@H]3N=C(N)N)O[C@@H](C)[C@]2(O)C=O)O[C@@H](CO)[C@H](O)[C@H]1O [Streptomycin]
B. subtilis 168 [1]; [7]
  fitness: 0.996
B. subtilis 168 [1]; [8]
  fitness: 0.657
B. subtilis 168 [1]; first compound 0.625 µg/mL, partner 8 µg/mL
  fitness: 0.0295
B. subtilis 168 [1]; [9]
  fitness: 0.997
B. subtilis 168 [1]; [10]
  fitness: 0.633
B. subtilis 168 [1]; [11]
  fitness: 0.0395
B. subtilis 168 [1]; [12]
  fitness: 0.995
B. subtilis 168 [1]; [13]
  fitness: 0.636
B. subtilis 168 [1]; [14]
  fitness: 0.0352
S. aureus Newman [2]; first compound 0.625 µg/mL, partner 1 µg/mL
  fitness: 0.91
S. aureus Newman [2]; [7]
  fitness: 0.956
S. aureus Newman [2]; [8]
  fitness: 0.909
S. aureus Newman [2]; first compound 0.781 µg/mL, partner 1 µg/mL
  fitness: 0.966
S. aureus Newman [2]; first compound 0.781 µg/mL, partner 2 µg/mL
  fitness: 0.899
S. aureus Newman [2]; first compound 1.25 µg/mL, partner 1 µg/mL
  fitness: 0.986
S. aureus Newman [2]; [9]
  fitness: 0.967
S. aureus Newman [2]; [10]
  fitness: 0.935
S. aureus Newman [2]; first compound 1.562 µg/mL, partner 1 µg/mL
  fitness: ≥ 1
S. aureus Newman [2]; first compound 1.562 µg/mL, partner 2 µg/mL
  fitness: 0.917
S. aureus Newman [2]; first compound 2.5 µg/mL, partner 1 µg/mL
  fitness: 0.928
S. aureus Newman [2]; [12]
  fitness: 0.938
S. aureus Newman [2]; [13]
  fitness: 0.889
S. aureus Newman [2]; first compound 3.124 µg/mL, partner 1 µg/mL
  fitness: 0.982
S. aureus Newman [2]; first compound 3.124 µg/mL, partner 2 µg/mL
  fitness: 0.926
S. pneumoniae D39V [3]; first compound 1.073 µg/mL, partner 2 µg/mL
  fitness: 0.903
S. pneumoniae D39V [3]; first compound 1.073 µg/mL, partner 4 µg/mL
  fitness: 0.992
S. pneumoniae D39V [3]; first compound 1.073 µg/mL, partner 8 µg/mL
  fitness: 0.945
S. pneumoniae D39V [3]; first compound 1.25 µg/mL, partner 2 µg/mL, one replicate
  fitness: ≥ 1
S. pneumoniae D39V [3]; [10]
  fitness: 0.992
S. pneumoniae D39V [3]; [11]
  fitness: 0.891
S. pneumoniae D39V [3]; first compound 1.25 µg/mL, partner 16 µg/mL, one replicate
  fitness: 0.815
S. pneumoniae D39V [3]; first compound 2.145 µg/mL, partner 2 µg/mL
  fitness: 0.935
S. pneumoniae D39V [3]; first compound 2.145 µg/mL, partner 4 µg/mL
  fitness: 0.977
S. pneumoniae D39V [3]; first compound 2.145 µg/mL, partner 8 µg/mL
  fitness: 0.932
S. pneumoniae D39V [3]; first compound 2.5 µg/mL, partner 2 µg/mL, one replicate
  fitness: ≥ 1
S. pneumoniae D39V [3]; [13]
  fitness: 0.998
S. pneumoniae D39V [3]; [14]
  fitness: 0.893
S. pneumoniae D39V [3]; first compound 2.5 µg/mL, partner 16 µg/mL, one replicate
  fitness: 0.787
S. pneumoniae D39V [3]; first compound 4.29 µg/mL, partner 2 µg/mL
  fitness: 0.871
S. pneumoniae D39V [3]; first compound 4.29 µg/mL, partner 4 µg/mL
  fitness: 0.905
S. pneumoniae D39V [3]; first compound 4.29 µg/mL, partner 8 µg/mL
  fitness: 0.945
S. pneumoniae D39V [3]; first compound 5 µg/mL, partner 2 µg/mL, one replicate
  fitness: 0.987
S. pneumoniae D39V [3]; first compound 5 µg/mL, partner 4 µg/mL
  fitness: 0.981
S. pneumoniae D39V [3]; first compound 5 µg/mL, partner 8 µg/mL
  fitness: 0.907
S. pneumoniae D39V [3]; first compound 5 µg/mL, partner 16 µg/mL, one replicate
  fitness: 0.818
B. subtilis 168 [4]
  Bliss interaction score: 0.0729
S. aureus DSM 20231
  Bliss interaction score: 0.0693
S. aureus Newman [5]
  Bliss interaction score: 0.0764
S. pneumoniae D39V [6]
  Bliss interaction score: 0.0448

## O=C(O)c1cn(C2CC2)c2cc(N3CCNCC3)c(F)cc2c1=O [Ciprofloxacin] + COc1c(N2C[C@@H]3CCCN[C@@H]3C2)c(F)cc2c(=O)c(C(=O)O)cn(C3CC3)c12 [Moxifloxacin]
B. subtilis 168 [1]; first compound 0.0098 µg/mL, partner 0.0625 µg/mL
  fitness: 0.051
B. subtilis 168 [1]; first compound 0.0098 µg/mL, partner 0.125 µg/mL
  fitness: 0.055
B. subtilis 168 [1]; first compound 0.0098 µg/mL, partner 2 µg/mL
  fitness: 0.0402
B. subtilis 168 [1]; first compound 0.0098 µg/mL, partner 4 µg/mL
  fitness: 0.0314
B. subtilis 168 [1]; first compound 0.0098 µg/mL, partner 8 µg/mL
  fitness: 0.0305
B. subtilis 168 [1]; first compound 0.0195 µg/mL, partner 0.0312 µg/mL
  fitness: 0.0426
B. subtilis 168 [1]; first compound 0.0195 µg/mL, partner 0.0625 µg/mL
  fitness: 0.0567
B. subtilis 168 [1]; first compound 0.0195 µg/mL, partner 0.125 µg/mL
  fitness: 0.0402
B. subtilis 168 [1]; first compound 0.0195 µg/mL, partner 2 µg/mL
  fitness: 0.0358
B. subtilis 168 [1]; first compound 0.0195 µg/mL, partner 4 µg/mL
  fitness: 0.027
B. subtilis 168 [1]; first compound 0.0195 µg/mL, partner 8 µg/mL
  fitness: 0.0243
B. subtilis 168 [1]; first compound 0.039 µg/mL, partner 0.0312 µg/mL
  fitness: 0.0379
B. subtilis 168 [1]; first compound 0.039 µg/mL, partner 0.0625 µg/mL
  fitness: 0.0522
B. subtilis 168 [1]; first compound 0.039 µg/mL, partner 0.125 µg/mL
  fitness: 0.0269
B. subtilis 168 [1]; first compound 0.039 µg/mL, partner 2 µg/mL
  fitness: 0.038
B. subtilis 168 [1]; first compound 0.039 µg/mL, partner 4 µg/mL
  fitness: 0.0353
B. subtilis 168 [1]; first compound 0.039 µg/mL, partner 8 µg/mL
  fitness: 0.0328
S. aureus Newman [2]; first compound 0.0375 µg/mL, partner 0.0075 µg/mL
  fitness: 0.579
S. aureus Newman [2]; first compound 0.0375 µg/mL, partner 0.015 µg/mL
  fitness: 0.414
S. aureus Newman [2]; first compound 0.0375 µg/mL, partner 0.03 µg/mL
  fitness: 0.0123
S. aureus Newman [2]; first compound 0.075 µg/mL, partner 0.0075 µg/mL
  fitness: 0.322
S. aureus Newman [2]; first compound 0.075 µg/mL, partner 0.015 µg/mL
  fitness: 0.0421
S. aureus Newman [2]; first compound 0.075 µg/mL, partner 0.03 µg/mL
  fitness: 0.0176
S. aureus Newman [2]; first compound 0.15 µg/mL, partner 0.0075 µg/mL
  fitness: 0.0344
S. aureus Newman [2]; first compound 0.15 µg/mL, partner 0.015 µg/mL
  fitness: 0.03
S. aureus Newman [2]; first compound 0.15 µg/mL, partner 0.03 µg/mL
  fitness: 0.0119
S. pneumoniae D39V [3]; first compound 0.125 µg/mL, partner 0.005 µg/mL
  fitness: 0.944
S. pneumoniae D39V [3]; first compound 0.125 µg/mL, partner 0.01 µg/mL
  fitness: 0.944
S. pneumoniae D39V [3]; first compound 0.125 µg/mL, partner 0.02 µg/mL
  fitness: 0.882
S. pneumoniae D39V [3]; first compound 0.125 µg/mL, partner 0.0312 µg/mL
  fitness: 0.0716
S. pneumoniae D39V [3]; first compound 0.125 µg/mL, partner 0.0625 µg/mL
  fitness: 0.0294
S. pneumoniae D39V [3]; first compound 0.125 µg/mL, partner 0.125 µg/mL
  fitness: 0.0127
S. pneumoniae D39V [3]; first compound 0.25 µg/mL, partner 0.005 µg/mL
  fitness: 0.887
S. pneumoniae D39V [3]; first compound 0.25 µg/mL, partner 0.01 µg/mL
  fitness: 0.892
S. pneumoniae D39V [3]; first compound 0.25 µg/mL, partner 0.02 µg/mL
  fitness: 0.812
S. pneumoniae D39V [3]; first compound 0.25 µg/mL, partner 0.0312 µg/mL, one replicate
  fitness: 0.0113
S. pneumoniae D39V [3]; first compound 0.25 µg/mL, partner 0.0625 µg/mL, one replicate
  fitness: 0.0007
S. pneumoniae D39V [3]; first compound 0.25 µg/mL, partner 0.125 µg/mL, one replicate
  fitness: 0
S. pneumoniae D39V [3]; first compound 0.5 µg/mL, partner 0.005 µg/mL
  fitness: 0.686
S. pneumoniae D39V [3]; first compound 0.5 µg/mL, partner 0.01 µg/mL
  fitness: 0.692
S. pneumoniae D39V [3]; first compound 0.5 µg/mL, partner 0.02 µg/mL
  fitness: 0.628
S. pneumoniae D39V [3]; first compound 0.5 µg/mL, partner 0.0312 µg/mL
  fitness: 0.0441
S. pneumoniae D39V [3]; first compound 0.5 µg/mL, partner 0.0625 µg/mL
  fitness: 0.0537
S. pneumoniae D39V [3]; first compound 0.5 µg/mL, partner 0.125 µg/mL
  fitness: 0.0249
B. subtilis 168 [4]
  Bliss interaction score: 0.026
S. aureus DSM 20231
  Bliss interaction score: -0.117
S. aureus Newman [5]
  Bliss interaction score: -0.2
S. pneumoniae D39V [6]
  Bliss interaction score: -0.0855
